Among the data in US10301286B2, “Piperazine derivative” (Astellas Pharma Inc., priority 2015, dated 2019) are EC50 and ED40 values, retold here.

Structures are written as SMILES. Counter-ions that a name gives are not always drawn.

One may read the EC50 as the concentration needed to bring the measured effect to its halfway point. Read a low EC50 as a more potent agent.

The target of assay [1] is human MC3 receptor (Homo sapiens (Human), UniProt P41968). The assay is described as follows: Human MC receptor activation, cAMP production in cells expressing human MC3 receptor. The class given is cell-based. The note with it: FreeStyle 293-F cells transiently expressing human MC3 receptor, α-MSH maximum = 100%. An excerpt:
(§1) (1) Construction of Human MC Receptor-Expressing Vector
(§2) A human MC4 receptor gene (GenBank Accession No.: NM_005912.2), a human MC1 receptor gene (GenBank Accession No.: NM_002386.3), or a human MC3 receptor gene (GenBank Accession No.: NM_019888.3) was introduced into an expression vector pcDNA™ 3.1/V5-His TOPO (registered trademark) (Thermo Fisher Scientific Inc.).
(§3) (2) Construction of Cells Transiently Expressing Human MC Receptor
(§4) An expression vector for a human MC4, MC1, or MC3 receptor was introduced into FreeStyle™ 293-F cell (Thermo Fisher Scientific Inc., product number: R790-07). For the introduction, electroporation was employed. That is, 1×10^7 FreeStyle™ 293-F cell were suspended in 80 μL of an electroporation buffer (Thermo Fisher Scientific Inc., product number: B201-100), and 20 μg of the expression vector was added thereto. The resultant was put into a cuvette (OC-100 Processing Assembly, MaxCyte, Inc.) and electroporated with MaxCyte SIX (registered trademark) (MaxCyte, Inc.). The cells were cultured over one day, suspended in a Cell Banker (registered trademark) 1 (JUJI FIELD Inc.), product number: BLC-1), and stored frozen until their use.
(§5) (3) Measurement of Amount of cAMP Produced
(§6) Measurement was carried out by using a LANCE (registered trademark) Ultra cAMP Kit (PerkinElmer, Inc.) in accordance with the attached instructions. That is, after dissolution in DMSO, the test compound (a final concentration of 1 pM to 30 μM) diluted with an assay buffer (Hank's balanced salt solution, 5 mM 4-(2-hydroxyethyl)-1-piperazineethanesulfonic acid (HEPES), 0.5 mM 3-isobutyl-1-methylxanthine (IBMX), 0.1% bovine serum albumin, pH 7.4), or α-MSH (Bachem Inc., a final concentration of 1 pM to 30 μM) was added to OptiPlate-384 (PerkinElmer, Inc.). Furthermore, a suspension of cells transiently expressing the human MC4, MC1, or MC3 receptor prepared by using the assay buffer was added thereto at 1,000 cells/well, followed by being left to stand at room temperature for about 1 hour. Thereafter, an Eu-cAMP tracer solution and an ULight™-anti-cAMP solution were added thereto, followed by being left to stand at room temperature for about 1 hour. The amount of cAMP was calculated using EnVision (registered trademark) (PerkinElmer Inc.).
(§7) For the agonistic activity, an efficacy (EC50 (μM)) was calculated by a non-linear regression method with a Sigmoid-Emax model, by defining the maximum reaction with α-MSH as 100% and the reaction with the vehicle alone as 0%, respectively.
For orientation: cAMP levels reflect the balance of adenylyl cyclase and phosphodiesterase activity.

Assay [2] concerns the target human MC1 receptor (Homo sapiens (Human), UniProt Q01726). The assay is described as follows: Human MC receptor activation, cAMP production in cells expressing human MC1 receptor. The class given is cell-based. The note with it: FreeStyle 293-F cells transiently expressing human MC1 receptor, α-MSH maximum = 100%.
Text: as §1, §2, §3, §4, §5, §6, §7

Assay [3] addresses human MC4 receptor (Homo sapiens (Human), UniProt P32245). The assay is described as follows: Human MC receptor activation, cAMP production in cells expressing human MC4 receptor. Format: cell-based. The note with it: FreeStyle 293-F cells transiently expressing human MC4 receptor, α-MSH maximum = 100%.
Text: as §1, §2, §3, §4, §5, §6, §7

The subject of assay [4] is Male Wistar rats. The assay can be described thus: Action on rat urethral pressure (phenylephrine-induced increase). The note with it: anesthetized rats, intravenous, dose giving 40% inhibition of phenylephrine-induced urethral pressure ΔAUC, read-out: ID40. The class given is in vivo. On the procedure:
The present Test Example was carried out by partially modifying the technique reported as a testing system for evaluating an urethral resistance-reducing action (European Journal of Pharmacology, 679, 127-131 (2012)). Male Wistar rats (Charles River Laboratories Japan, Inc.) were anesthetized with urethane (1.2 g/kg ip), and placed in a supine position. The lower abdominal portion was midline-incised, and thus, the bladder was exposed. The bladder apex was incised, a microchip pressure transducer catheter (3.5 Fr, Millar) was inserted into the inside of the urethra, and then placed therein. In addition, a cannula for administration of a drug was placed into the femoral vein. After stabilization of the urethral pressure, phenylephrine hydrochloride (Sigma-Aldrich, 30 μg/kg) was administered intravenously to induce an increase in the urethral pressure. At an interval of about 30 minutes, this operation was repeated twice or more to confirm the stability of the reaction of a phenylephrine hydrochloride-induced increase in the urethral pressure. Thereafter, a test compound (dissolved in 20% dimethyl acetamide, 10% Cremophor (registered trademark) and 70% physiological saline) was intravenously administered, and then 5 minutes later, phenylephrine hydrochloride was administered. The procedure of administration of the test compound and administration of phenylephrine hydrochloride was repeated at an interval of about 30 minutes, and 3 to 5 doses of the test compound was evaluated (the test compound was administered at increasing doses). The data of reaction was introduced into a personal computer through PowerLab (registered trademark) (ADInstruments, Inc.), and analyzed with LabChart (registered trademark) (ADInstruments, Inc.). For the evaluation, the value of the area under the urethral pressure (mmHg·s) for one minute before and after administration of phenylephrine hydrochloride was determined to calculate the difference between before and after administration of phenylephrine hydrochloride (ΔAUC value). By taking the ΔAUC value obtained before administering the test compound as 100%, the ratio (reaction rate) of the ΔAUC value of the test compound at each dose was calculated. The rate at which the obtained reaction rate becomes 60% (40% as an inhibition rate) was defined as ID40, and the ID40 values of the test compounds were calculated by non-linear regression.

human MC3 receptor, sequence (P41968 whole entry): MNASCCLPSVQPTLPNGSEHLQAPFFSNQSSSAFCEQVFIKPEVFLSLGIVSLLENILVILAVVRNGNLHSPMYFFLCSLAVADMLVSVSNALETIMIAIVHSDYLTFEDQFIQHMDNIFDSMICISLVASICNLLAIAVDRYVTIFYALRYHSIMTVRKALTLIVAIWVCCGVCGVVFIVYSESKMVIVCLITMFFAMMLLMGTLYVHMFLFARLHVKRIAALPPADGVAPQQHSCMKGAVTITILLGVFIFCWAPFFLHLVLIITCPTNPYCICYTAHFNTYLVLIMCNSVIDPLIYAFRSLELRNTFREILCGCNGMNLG
human MC4 receptor, sequence (P32245 whole entry): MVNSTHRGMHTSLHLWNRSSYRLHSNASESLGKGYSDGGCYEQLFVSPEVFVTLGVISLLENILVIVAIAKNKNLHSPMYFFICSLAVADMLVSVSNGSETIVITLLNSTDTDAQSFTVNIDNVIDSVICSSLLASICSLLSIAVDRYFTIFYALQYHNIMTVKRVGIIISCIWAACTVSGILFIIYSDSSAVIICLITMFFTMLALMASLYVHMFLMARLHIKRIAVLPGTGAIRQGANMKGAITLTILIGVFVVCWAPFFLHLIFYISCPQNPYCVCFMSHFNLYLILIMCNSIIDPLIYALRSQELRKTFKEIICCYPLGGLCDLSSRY
human MC1 receptor, sequence (Q01726 whole entry): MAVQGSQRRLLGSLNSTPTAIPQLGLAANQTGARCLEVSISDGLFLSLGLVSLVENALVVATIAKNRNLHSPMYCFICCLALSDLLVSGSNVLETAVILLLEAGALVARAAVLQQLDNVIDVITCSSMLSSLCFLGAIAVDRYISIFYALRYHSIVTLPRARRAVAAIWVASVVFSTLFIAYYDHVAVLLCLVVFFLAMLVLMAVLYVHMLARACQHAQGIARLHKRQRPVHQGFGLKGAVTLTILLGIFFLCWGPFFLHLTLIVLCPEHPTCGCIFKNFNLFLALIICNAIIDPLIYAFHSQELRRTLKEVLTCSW

As for `Cc1cc(C)c(C[C@@H](C(=O)O)N2CCN(C(=O)[C@@H]3CN(C(C)(C)C)C[C@H]3c3ccc(Cl)cc3F)[C@@H](C)C2)c(C)c1` [Example 89], the EC50 worked out at 0.78 µM in assay [1], 1.3 µM in assay [2] and 0.003 µM in assay [3]. The ED40 in assay [4] worked out at 0.024 mg/kg.
In the case of `C[C@H]1CN([C@@H](Cc2ccc3c(c2)CCC3)C(=O)O)CCN1C(=O)[C@@H]1CN(C(C)(C)C)C[C@H]1c1ccc(F)cc1F` [Example 5, (2S)-2-[(3S)-4-{[(3S,4R)-1-tert-butyl-4-(2,4-difluorophenyl)pyrrolidin-3-yl]carbonyl}-3-methylpiperazin-1-yl]-3-(2,3-dihydro-1H-inden-5-yl)propanoic acid dihydrochloride], the EC50 turned out to be 4.2 µM in assay [1], 1.3 µM in assay [2] and 0.025 µM in assay [3]. The ED40 in assay [4] was 0.13 mg/kg.
Regarding `Cc1ccc(C[C@@H](C(=O)O)N2CCN(C(=O)[C@@H]3CN(C4CCOCC4)C[C@H]3c3ccc(Cl)cc3F)[C@@H](C)C2)c(F)c1` [Example 87, (2S)-2-[(3S)-4-{[(3S,4R)-4-(4-chloro-2-fluorophenyl)-1-(tetrahydro-2H-pyran-4-yl)pyrrolidin-3-yl]carbonyl}-3-methylpiperazin-1-yl]-3-(2-fluoro-4-methylphenyl)propanoic acid dihydrochloride], the results for the EC50 in assay [1], in assay [2] and in assay [3] were 0.92 µM, 1.1 µM and 0.011 µM, respectively. Moreover, the ED40 in assay [4] is 0.04 mg/kg.
As for `Cc1cc(F)c(C[C@@H](C(=O)O)N2CCN(C(=O)[C@@H]3CN(C(C)(C)C)C[C@H]3c3ccc(Cl)cc3F)[C@@H](C)C2)c(F)c1` [Example 76], the figures for the EC50 in assay [1], in assay [2] and in assay [3] were 0.33 µM, 0.1 µM and 0.00096 µM, respectively. In addition, the ED40 in assay [4] was determined as 0.0047 mg/kg.
Consider `Cc1cc(C)c(C[C@@H](C(=O)O)N2CCN(C(=O)[C@@H]3CN(C4CCOCC4)C[C@H]3c3ccc(Cl)cc3F)[C@@H](C)C2)c(F)c1` [Example 88], for which the EC50 stood at 0.88 µM in assay [1], 2.7 µM in assay [2] and 0.012 µM in assay [3]. Besides, the ED40 in assay [4] worked out at 0.04 mg/kg.
In the case of `CCC[C@H]1CN([C@@H](Cc2ccc3ccccc3c2)C(=O)O)CCN1C(=O)[C@@H]1CN(C(C)(C)C)C[C@H]1c1ccc(F)cc1F` [Example 9], the values for the EC50 in assay [1], in assay [2] and in assay [3] were 0.91 µM, 0.39 µM and 0.0032 µM, respectively. Besides, in assay [4], the ED40 is 0.047 mg/kg.
The matching figures for `Cc1ccc(C[C@@H](C(=O)O)N2CCN(C(=O)[C@@H]3CN(C(C)(C)C)C[C@H]3c3ccc(Cl)cc3F)[C@@H](C)C2)c(F)c1` [Example 4, (2S)-2-[(3S)-4-{[(3S,4R)-1-tert-butyl-4-(4-chloro-2-fluorophenyl)pyrrolidin-3-yl]carbonyl}-3-methylpiperazin-1-yl]-3-(2-fluoro-4-methylphenyl)propanoic acid dihydrochloride]: 0.18 µM, 0.07 µM, 0.0015 µM and 0.0094 mg/kg.
The matching figures for `Cc1ccc(C[C@@H](C(=O)O)N2CCN(C(=O)[C@@H]3CN(C(C)(C)C)C[C@H]3c3ccc(Cl)cc3F)[C@@H](C)C2)cc1` [Example 11]: 3.7 µM, 0.86 µM, 0.017 µM and 0.088 mg/kg.
